From patent publication US20050112573A1, “Method of detecting toxic substance” (priority 2001, published 2005)

Test system: yeast genes (level of expressed mRNA)
Experiment: DNA chip analysis of expressed mRNA of yeast genes after 2 h culture with a toxic chemical substance
Type: cell-based, Saccharomyces cerevisiae S288C
Settings: for The level of expressed mRNA in the presence of chemical substance/ (ratio to absence of chemical substance): stress protein genes, DNA chip
How it was run: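 S. cerevisiae S288C grown at 25° C in YPD; toxicant added at log phase at growth-inhibitory, non-lethal levels for 2 h, untreated cells as control. Poly(A) mRNA reverse-transcribed with Cy3/Cy5-dUTP, hybridized to whole-genome chip at 65° C >12 h; value is fluorescence ratio versus untreated.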

## C=CC=O [(14), acrolein]
Gene YOR267C
  The level of expressed mRNA in the presence of chemical substance/absence: YOR267C: 0.9
Gene YOR325W
  The level of expressed mRNA in the presence of chemical substance/absence: YOR325W: 1.3
Gene YOR336W
  level of expressed mRNA in the presence of chemical substance/in its absence: 1.1
Gene YOR344C
  level of expressed mRNA in the presence of chemical substance/in its absence: 0.6
Gene YOR347C
  level of expressed mRNA in the presence of chemical substance/in its absence: 0.9
Gene YPL005W
  The level of expressed mRNA in the presence of chemical substance/absence: YPL005W: 1.0
Gene YPL017C
  level of expressed mRNA in the presence of chemical substance/in its absence: 1.6
Gene YPL107W, DNA chip fluorescence ratio to control without chemical, 2 hours culture with chemical, growth-inhibiting non-lethal concentration
  The level of expressed mRNA in the presence of chemical substance / the level in the absence of chemical substance, yeast gene YPL107W: 1.7
Gene YPL138C, DNA chip fluorescence ratio to control without chemical, 2 hours culture with chemical, growth-inhibiting non-lethal concentration
  The level of expressed mRNA in the presence of chemical substance / the level in the absence of chemical substance, yeast gene YPL138C: 1.3
Gene YPL150W
  The level of expressed mRNA in the presence of chemical substance/absence: YPL150W: 1.0
Gene YPL151C
  The level of expressed mRNA in the presence of chemical substance/absence: YPL151C: 0.9
Gene YPL152W
  The level of expressed mRNA in the presence of chemical substance/absence: YPL152W: 1.2
Gene YPL168W
  The level of expressed mRNA in the presence of chemical substance/absence: YPL168W: 1.0
Gene YPL180W
  The level of expressed mRNA in the presence of chemical substance/absence: YPL180W: 1.0
Gene YPL188W
  The level of expressed mRNA in the presence of chemical substance/absence: YPL188W: 1.4
Gene YPL221W
  The level of expressed mRNA in the presence of chemical substance/absence: YPL221W: 0.8
Gene YPL225W
  The level of expressed mRNA in the presence of chemical substance/absence: YPL225W: 1.4
Gene YPL249C
  The level of expressed mRNA in the presence of chemical substance/absence: YPL249C: 1.0
Gene YPL260W
  The level of expressed mRNA in the presence of chemical substance/absence: YPL260W: 1.1
Gene YPL265W
  level of expressed mRNA in the presence of chemical substance/in its absence: 1.1
Gene YPR006C
  level of expressed mRNA in the presence of chemical substance/in its absence: 1.2
Gene YPR026W
  level of expressed mRNA in the presence of chemical substance/in its absence: 1.5
Gene YPR049C
  The level of expressed mRNA in the presence of chemical substance/absence: YPR049C: 1.4
Gene YPR061C
  The level of expressed mRNA in the presence of chemical substance/absence: YPR061C: 1.7
Gene YPR093C
  The level of expressed mRNA in the presence of chemical substance/absence: YPR093C: 1.1
Gene YPR146C
  The level of expressed mRNA in the presence of chemical substance/absence: YPR146C: 0.9
Gene YPR148C
  The level of expressed mRNA in the presence of chemical substance/absence: YPR148C: 1.1
Gene YPR150W
  The level of expressed mRNA in the presence of chemical substance/absence: YPR150W: 1.4
Gene YPR158W
  The level of expressed mRNA in the presence of chemical substance/absence: YPR158W: 1.1
Gene YPR169W
  The level of expressed mRNA in the presence of chemical substance/absence: YPR169W: 1.0
Gene YPR172W
  The level of expressed mRNA in the presence of chemical substance/absence: YPR172W: 1.6
Gene YPR174C
  The level of expressed mRNA in the presence of chemical substance/absence: YPR174C: 0.9
Yeast gene YAR010C
  The level of expressed mRNA in the presence of chemical substance/The level of expressed mRNA in the absence of chemical substance: 1.0
Yeast gene YBL005W-A
  The level of expressed mRNA in the presence of chemical substance/The level of expressed mRNA in the absence of chemical substance: 1.4
Yeast gene YBL038W, mitochondria-located protein genes, 2 h culture with chemical
  The level of expressed mRNA in the presence of chemical substance/ (ratio to absence), gene YBL038W: 2.3
Yeast gene YBL041W
  The level of expressed mRNA in the presence of chemical substance/The level of expressed mRNA in the absence of chemical substance: 2.0
Yeast gene YBL043W
  The level of expressed mRNA in the presence of chemical substance/The level of expressed mRNA in the absence of chemical substance: 1.9
Yeast gene YBL078C
  The level of expressed mRNA in the presence of chemical substance/The level of expressed mRNA in the absence of chemical substance: 3.6
Yeast gene YBL093C
  The level of expressed mRNA in the presence of chemical substance/ (ratio to absence of chemical substance): 1.0
Yeast gene YBR036C, ratio of DNA chip fluorescence intensity to that without chemical substance
  The level of expressed mRNA in the presence of chemical substance/ (in its absence), gene YBR036C: 0.8
Yeast gene YBR044C
  The level of expressed mRNA in the presence of chemical substance/ (ratio to absence of chemical substance): 0.9
Yeast gene YBR122C, mitochondria-located protein genes, 2 h culture with chemical
  The level of expressed mRNA in the presence of chemical substance/ (ratio to absence), gene YBR122C: 1.2
Yeast gene YBR214W
  The level of expressed mRNA in the presence of chemical substance/The level of expressed mRNA in the absence of chemical substance: 0.9
Yeast gene YBR251W, mitochondria-located protein genes, 2 h culture with chemical
  The level of expressed mRNA in the presence of chemical substance/ (ratio to absence), gene YBR251W: 1.6
Yeast gene YBR298C, ratio of DNA chip fluorescence intensity to that without chemical substance
  The level of expressed mRNA in the presence of chemical substance/ (in its absence), gene YBR298C: 0.9
Yeast gene YCL020W
  The level of expressed mRNA in the presence of chemical substance/The level of expressed mRNA in the absence of chemical substance: 1.7
Yeast gene YCL027W
  The level of expressed mRNA in the presence of chemical substance/The level of expressed mRNA in the absence of chemical substance: 1.2
Yeast gene YCR004C
  The level of expressed mRNA in the presence of chemical substance/The level of expressed mRNA in the absence of chemical substance: 3.7
Yeast gene YCR046C, mitochondria-located protein genes, 2 h culture with chemical
  The level of expressed mRNA in the presence of chemical substance/ (ratio to absence), gene YCR046C: 1.3
Yeast gene YCR071C
  The level of expressed mRNA in the presence of chemical substance/The level of expressed mRNA in the absence of chemical substance: 1.7
Yeast gene YCR083W, mitochondria-located protein genes, 2 h culture with chemical
  The level of expressed mRNA in the presence of chemical substance/ (ratio to absence), gene YCR083W: 2.4
Yeast gene YCR083W
  The level of expressed mRNA in the presence of chemical substance/ (ratio to absence of chemical substance): 2.4
Yeast gene YCR088W
  The level of expressed mRNA in the presence of chemical substance/The level of expressed mRNA in the absence of chemical substance: 0.9
Yeast gene YDL008W
  The level of expressed mRNA in the presence of chemical substance/The level of expressed mRNA in the absence of chemical substance: 2.2
Yeast gene YDL067C, energy system protein genes, 2 h culture with the chemical, ratio to control without chemical
  The level of expressed mRNA in the presence of chemical substance/ in its absence, gene YDL067C: 1.4
Yeast gene YDL067C, mitochondria-located protein genes, 2 h culture with chemical
  The level of expressed mRNA in the presence of chemical substance/ (ratio to absence), gene YDL067C: 1.4
Yeast gene YDL078C, energy system protein genes, 2 h culture with the chemical, ratio to control without chemical
  The level of expressed mRNA in the presence of chemical substance/ in its absence, gene YDL078C: 0.8
